# Laboratory results as given in patent US7132422B2, “Sodium channel modulators” (Theravance, Inc., priority 2001, dated 2006).
# System: spinal nerve ligation (SNL) rats
# Assay: In vivo pain model: spinal nerve ligation (SNL), 50% withdrawal threshold with von Frey filaments
# Details: intraperitoneal dose of approximately 30 mg/kg
# Procedure: Male Sprague-Dawley rats (120–180 g, Harlan, Indianapolis, Ind.) are pre-screened to determine their baseline 50% withdrawal threshold using a set of von Frey filaments. The 50% withdrawal threshold for mechanical stimulation to the hind paw is determined by the up-down method described by Dixon W. J., Ann.
# An abrupt withdrawal of the foot during stimulation or immediately after the removal of stimulus is considered a positive response.
# Whenever there is a positive or negative response, the next weaker or stronger filament is applied, respectively. The test is continued until six stimuli after the first change in response has been obtained. […] In the cases where continuous positive or negative responses are observed all the way out to the end of the stimulus spectrum, values of 0.3 g or 15.0 g are assigned, respectively.
# After pre-screening, rats which display a 50% withdrawal threshold greater than 8 g are acceptable for surgery. The spinal nerve ligation (SNL) surgery is carried out as follows. Rats are anesthetized with inhaled Isoflurance and the left L5 and L6 spinal nerves are tightly ligated with 6-0 silk thread. Postoperatively, rats are placed under a heat lamp until motor function returns and then single-housed. At 5–7 days post surgery, rats are re-tested to determine their post-surgery 50% withdrawal threshold. Rats which consistently display (2 or more days) a 50% withdrawal threshold less than 4.5 g are considered acceptable for compound investigation.
# Compounds are formulated in saline for injection and pH adjusted with dilute sodium hydroxide. Groups sizes are normally 5 or 6 rats. […] At 1, 3, and 6 hours post administration, the 50% withdrawal threshold is determined by an investigator who is blinded to the treatment groups. If at 6 hours, some prolonged activity is present, i.e., 50% withdrawal thresholds greater than 8 g, then later timepoints may be attempted (normally at 12 and 24 hours). Compounds can also be administered orally to determine oral activity.
row,Structure (SMILES),effectiveness for treating pain / activity in the in vivo pain model
1,Cc1ccccc1OCC(C)(N)COc1ccccc1C [Compound 1],demonstrated effectiveness for treating pain
2,CC(N)(COc1c(F)cc(F)cc1F)COc1c(F)cc(F)cc1F [Compound 6],not active
3,Cc1cccc(C)c1OCC(COc1c(C)cccc1C)NCCc1ccncc1 [Compound 79],not active
4,Cc1cccc(C)c1OCC(N)COc1c(F)cc(F)cc1F (stereo not drawn) [Compound 11],some activity
5,Cc1cccc(Cl)c1OCC(C)(N)COc1c(C)cccc1Cl [Compound 5],some activity
6,Cc1ccccc1OCC(N)COc1ccccc1C [Compound 8],not active
